Converted amounts (≈) assume the structure as drawn.
How the values were obtained:
[1] = system: Escherichia coli; assay: Antibacterial activity against Escherichia coli assessed as inhibition of bacterial growth incubated for 4 to 20 hrs by resazurin based microplate reader analysis; format: functional; conditions: time 4-20 hrs
[2] = system: Bacillus subtilis; assay: Antibacterial activity against Bacillus subtilis assessed as inhibition of bacterial growth incubated for 4 to 20 hrs by resazurin based microplate reader analysis; format: functional; conditions: time 4-20 hrs
[3] = system: Staphylococcus aureus; assay: Antibacterial activity against Staphylococcus aureus assessed as inhibition of bacterial growth incubated for 4 to 20 hrs by resazurin based microplate reader analysis; format: functional; conditions: time 4-20 hrs
[4] = system: Pseudomonas aeruginosa; assay: Antibacterial activity against Pseudomonas aeruginosa assessed as inhibition of bacterial growth incubated for 4 to 20 hrs by resazurin based microplate reader analysis; format: functional; conditions: time 4-20 hrs
[5] = system: Escherichia coli; assay: Antibacterial activity against Escherichia coli assessed as zone of inhibition at 50 microg/ml by cup plate analysis; format: functional; conditions: read-out: IZ
[6] = system: Bacillus pumilus; assay: Antibacterial activity against Bacillus pumilus assessed as zone of inhibition at 50 microg/ml by cup plate analysis; format: functional; conditions: read-out: IZ
[7] = system: Proteus vulgaris; assay: Antibacterial activity against Proteus vulgaris assessed as zone of inhibition at 50 microg/ml by cup plate analysis; format: functional; conditions: read-out: IZ
[8] = system: Bacillus subtilis; assay: Antibacterial activity against Bacillus subtilis assessed as zone of inhibition at 50 microg/ml by cup plate analysis; format: functional; conditions: read-out: IZ
[9] = system: Escherichia coli; assay: microbe, parasite or virus in culture; conditions: ATCC 25922, 24 h
Description: Antibacterial activity against Escherichia coli ATCC 25922 assessed as reduction in bacterial growth measured after 24 hrs by Mueller-Hinton broth assay

[10] = system: Bacillus subtilis; assay: Antibacterial activity against Bacillus subtilis ATCC 465 assessed as reduction in bacterial growth measured after 24 hrs by Mueller-Hinton broth assay; format: functional
[11] = system: Staphylococcus aureus; assay: microbe, parasite or virus in culture; conditions: ATCC 25923, 24 h
Description: Antibacterial activity against Staphylococcus aureus ATCC 25923 assessed as reduction in bacterial growth measured after 24 hrs by Mueller-Hinton broth assay

[12] = system: Enterococcus raffinosus; assay: Antibacterial activity against Enterococcus raffinosus assessed as bacterial growth inhibition incubated for 24 hrs by CLSI protocol based Mueller-Hinton broth assay; format: functional
[13] = system: Staphylococcus aureus; assay: Antibacterial activity against Staphylococcus aureus assessed as bacterial growth inhibition incubated for 24 hrs by CLSI protocol based Mueller-Hinton broth assay; format: functional
[14] = system: Staphylococcus aureus; assay: Antibacterial activity against Staphylococcus aureus assessed as reduction in microbial growth by CLSI based broth microdilution method; format: functional
[15] = system: Escherichia coli; assay: Antibacterial activity against Escherichia coli assessed as bacterial growth inhibition incubated for 18 hrs by CLSI protocol based Mueller-Hinton broth assay; format: functional
[16] = system: Streptococcus pyogenes; assay: Antibacterial activity against Streptococcus pyogenes assessed as reduction in microbial growth by CLSI based broth microdilution method; format: functional
[17] = system: Pseudomonas aeruginosa; assay: Antibacterial activity against Pseudomonas aeruginosa assessed as reduction in bacterial growth by broth microdilution method; format: functional
[18] = system: Corynebacterium glutamicum; assay: Antibacterial activity against Corynebacterium glutamicum; format: functional
[19] = system: Corynebacterium sp.; assay: Antibacterial activity against Corynebacterium sp.; format: functional
[20] = system: Staphylococcus epidermidis; assay: Antibacterial activity against Staphylococcus epidermidis assessed as reduction in microbial growth after 24 hrs by CLSI based microdilution method; format: functional
[21] = system: Micrococcus luteus; assay: Antibacterial activity against Micrococcus luteus assessed as bacterial growth inhibition by paper disc diffusion assay; format: functional
[22] = system: Micrococcus sp.; assay: Antibacterial activity against Micrococcus sp.; format: functional
[23] = system: Corynebacterium xerosis; assay: Antibacterial activity against Corynebacterium xerosis; format: functional
[24] = system: Moraxella catarrhalis; assay: Antibacterial activity against Moraxella catarrhalis assessed as reduction in bacterial growth by broth microdilution method; format: functional
[25] = system: Staphylococcus hominis; assay: Antibacterial activity against Staphylococcus hominis; format: functional
[26] = system: Staphylococcus xylosus; assay: Antibacterial activity against Staphylococcus xylosus assessed as reduction in bacterial growth; format: functional
[27] = system: Acinetobacter sp.; assay: Antibacterial activity against Acinetobacter sp.; format: functional
[28] = system: Micrococcus luteus; assay: Antibacterial activity against Micrococcus luteus assessed as reduction in microbial growth; format: functional
[29] = system: Staphylococcus cohnii; assay: Antibacterial activity against Staphylococcus cohnii; format: functional
[30] = system: Arcanobacterium haemolyticum; assay: Antibacterial activity against Arcanobacterium haemolyticum; format: functional
[31] = system: Alcaligenes faecalis; assay: Antibacterial activity against Alcaligenes faecalis; format: functional
[32] = system: Staphylococcus epidermidis; assay: Antibacterial activity against Staphylococcus epidermidis assessed as reduction in bacterial growth measured after 24 hrs by broth microdilution method; format: functional
[33] = system: Staphylococcus haemolyticus; assay: Antibacterial activity against Staphylococcus haemolyticus clinical isolates assessed as bacterial growth inhibition measured after 16 to 24 hrs by broth microdilution assay; format: functional; conditions: time 16-24 hrs
[34] = system: Corynebacterium glutamicum; assay: Antibacterial activity against Corynebacterium glutamicum ATCC 13032 cultured in MHB medium assessed as no bacterial growth incubated at 20 degC for 24 hrs by microdilution susceptibility test; format: functional
[35] = system: Staphylococcus aureus; assay: Antibacterial activity against Staphylococcus aureus assessed as bacterial growth inhibition by measuring zone of inhibition at 50 ug/ml by agar cup diffusion assay; format: functional; conditions: read-out: IZ
[36] = system: Bacillus subtilis; assay: Antibacterial activity against Bacillus subtilis assessed as bacterial growth inhibition by measuring zone of inhibition at 50 ug/ml by agar cup diffusion assay; format: functional; conditions: read-out: IZ
[37] = system: Escherichia coli; assay: Antibacterial activity against Escherichia coli assessed as bacterial growth inhibition by measuring zone of inhibition at 50 ug/ml by agar cup diffusion assay; format: functional; conditions: read-out: IZ
[38] = system: Salmonella typhimurium; assay: Antibacterial activity against Salmonella typhimurium DT104 assessed as bacterial growth inhibition by measuring zone of inhibition at 50 ug/ml by agar cup diffusion assay; format: functional, Salmonella enterica subsp. enterica serovar Typhimurium; conditions: Salmonella enterica, read-out: IZ
[39] = system: Staphylococcus aureus; assay: Antibacterial activity against Staphylococcus aureus assessed as reduction in bacterial growth incubated for 16 to 20 hrs by Mueller-Hinton broth based two-fold serial dilution method; format: functional; conditions: time 16-20 hrs
[40] = system: Streptococcus pyogenes; assay: Antibacterial activity against Streptococcus pyogenes assessed as reduction in microbial growth incubated for 24 hrs by broth micro-dilution method; format: functional
[41] = system: Klebsiella pneumoniae; assay: Antibacterial activity against Klebsiella pneumoniae assessed as reduction in bacterial growth incubated for 16 to 20 hrs by Mueller-Hinton broth based two-fold serial dilution method; format: functional; conditions: time 16-20 hrs
[42] = system: Pseudomonas aeruginosa; assay: Antibacterial activity against Pseudomonas aeruginosa assessed as reduction in bacterial growth incubated for 24 hrs by broth microdilution method; format: functional
[43] = system: Escherichia coli; assay: Antibacterial activity against Escherichia coli assessed as reduction in bacterial growth incubated for 16 to 20 hrs by Mueller-Hinton broth based two-fold serial dilution method; format: functional; conditions: time 16-20 hrs

With CC1(C)S[C@@H]2[C@H](NC(=O)[C@H](N)c3ccc(O)cc3)C(=O)N2[C@H]1C(=O)O [AMOXICILLIN] the MIC [1] was 0.5 µg/mL (≈ 1.37 µM), the MIC [2] was 0.39 µg/mL (≈ 1.07 µM) and the MIC [3] was 0.39 µg/mL (≈ 1.07 µM). For the same molecule, the MIC [4] was 1 µg/mL (≈ 2.74 µM).

In the case of Nc1nc(-c2ccsc2)cc(-c2ccc(Cl)cc2Cl)n1, the zone of inhibition at 50 µg/mL [5] is reported as 12 mm, the zone of inhibition at 50 µg/mL [6] is reported as 13 mm and the zone of inhibition at 50 µg/mL [7] is reported as 15 mm. For the same molecule, the zone of inhibition at 50 µg/mL [8] was 16 mm.

Molecule Cc1nc(NC(=O)c2cc(C(F)(F)F)cc(C(F)(F)F)c2)c2c(C(F)(F)F)cc(-c3ccccc3)nc2n1 has an MIC [1] of 50 µg/mL (≈ 91.8 µM), an MIC [2] of 12.5 µg/mL (≈ 23 µM) and an MIC [3] of 12.5 µg/mL (≈ 23 µM). The MIC [4] was 50 µg/mL (≈ 91.8 µM).

Molecule Cc1ccc(-c2c(N)c(C#N)nc3[nH]c(=O)[nH]c(=O)c23)cc1 has an MIC [9] of 512 µg/mL (≈ 1750 µM), an MIC [10] of 2 µg/mL (≈ 6.82 µM) and an MIC [11] of 32 µg/mL (≈ 109 µM).

Nc1n[nH]c2nc(-c3ccccc3)nc(-c3ccc(Br)cc3)c12 gave an MIC [12] of 12.3 µg/mL (≈ 33.6 µM) and an MIC [13] of 3.8 µg/mL (≈ 10.4 µM).

O=[N+]([O-])c1ccc(Nc2nc(Nc3ccc(S(=O)(=O)Nc4ncccn4)cc3)nc(N3CCCCC3)n2)cc1 showed an MIC [14] of 100 µg/mL, an MIC [15] of 25 µg/mL (≈ 45.6 µM) and an MIC [16] of 100 µg/mL. For the same molecule, the MIC [17] was 50 µg/mL (≈ 91.1 µM).

Work on CCOC(=O)c1ccc(Nc2nc(Nc3ccc(S(=O)(=O)Nc4ncccn4)cc3)nc(N3CCCCC3)n2)cc1 yielded an MIC [14] of 100 µg/mL, an MIC [15] of 25 µg/mL (≈ 43.4 µM) and an MIC [16] of 100 µg/mL. For the same molecule, the MIC [17] was 25 µg/mL (≈ 43.4 µM).

For Clc1ccc(C(Cc2ccccc2)c2c(Cl)nc(Cl)nc2Cl)cc1 (stereo unspecified), the MIC [18] was 30 µg/mL (≈ 75.4 µM), the MIC [19] was 100 µg/mL (≈ 251 µM) and the MIC [20] was 100 µg/mL. The MIC [21] was 20 µg/mL (≈ 50.2 µM), the MIC [22] was 30 µg/mL (≈ 75.4 µM) and the MIC [23] was 20 µg/mL (≈ 50.2 µM). The MIC [24] was 300 µg/mL (≈ 754 µM), the MIC [25] was 100 µg/mL (≈ 251 µM) and the MIC [26] was 20 µg/mL (≈ 50.2 µM). It also gave an MIC [27] of over 1000 µg/mL, an MIC [28] of 20 µg/mL and an MIC [29] of 100 µg/mL (≈ 251 µM). The MIC [30] was 10 µg/mL (≈ 25.1 µM), the MIC [31] was 1000 µg/mL (≈ 2510 µM) and the MIC [32] was over 100 µg/mL. The MIC [33] was 100 µg/mL (≈ 251 µM) and the MIC [34] was 30 µg/mL (≈ 75.4 µM).

Work on Clc1ccc(C(Cc2ccccc2)c2c(Cl)nc(N3CCNCC3)nc2Cl)cc1 (stereo unspecified) yielded an MIC [18] of 100 µg/mL (≈ 223 µM), an MIC [19] of 100 µg/mL (≈ 223 µM) and an MIC [20] of 100 µg/mL. It also gave an MIC [21] of 100 µg/mL (≈ 223 µM), an MIC [22] of 100 µg/mL (≈ 223 µM) and an MIC [23] of 30 µg/mL (≈ 67 µM). For the same molecule, the MIC [24] was 100 µg/mL (≈ 223 µM), the MIC [25] was 100 µg/mL (≈ 223 µM) and the MIC [26] was 100 µg/mL (≈ 223 µM). For the same molecule, the MIC [27] was 50 µg/mL (≈ 112 µM), the MIC [28] was 100 µg/mL and the MIC [29] was 100 µg/mL (≈ 223 µM). For the same molecule, the MIC [30] was 10 µg/mL (≈ 22.3 µM), the MIC [31] was over 500 µg/mL and the MIC [32] was 100 µg/mL (≈ 223 µM). It also gave an MIC [33] of 100 µg/mL (≈ 223 µM) and an MIC [34] of 50 µg/mL (≈ 112 µM).

In the case of O=C(CSc1nnc(-c2cccnc2N2CCOCC2)o1)Nc1nc(-c2ccc(Cl)cc2)cc(-c2cc(F)c(Cl)cc2Cl)n1, the zone of inhibition at 50 µg/mL [35] is reported as 13 mm, the zone of inhibition at 50 µg/mL [36] is reported as 10 mm and the zone of inhibition at 50 µg/mL [37] is reported as 10 mm. The zone of inhibition at 50 µg/mL [38] was 9 mm.

With Nc1nc(-c2ccc(F)cc2)cc(-c2ccsc2)n1 the zone of inhibition at 50 µg/mL [5] was 13 mm, the zone of inhibition at 50 µg/mL [6] was 14 mm and the zone of inhibition at 50 µg/mL [7] was 14 mm. It also gave a zone of inhibition at 50 µg/mL [8] of 17 mm.

Molecule O=S(=O)(Nc1ncccn1)c1ccc(Nc2nc(Nc3ccc(Cl)cc3)nc(N3CCCCC3)n2)cc1 has an MIC [14] of 200 µg/mL, an MIC [15] of 25 µg/mL (≈ 46.5 µM) and an MIC [16] of 100 µg/mL. The MIC [17] was 100 µg/mL (≈ 186 µM).

Work on Nc1c(-c2nc3ccccc3s2)c(-c2ccc(Cl)cc2)nc2nc(N/N=C/c3cccc([N+](=O)[O-])c3)[nH]c(=O)c12 yielded an MIC [39] of 12.5 µg/mL (≈ 22 µM), an MIC [40] of 12.5 µg/mL and an MIC [41] of 12.5 µg/mL (≈ 22 µM). The MIC [42] was 12.5 µg/mL (≈ 22 µM) and the MIC [43] was 12.5 µg/mL (≈ 22 µM).
